The subject of one data set is Mus musculus. The settings on record: for LD50 / LC50: acute.
Data set [1] has as its system Rattus norvegicus. The settings on record: for LD50 / LC50: acute.
In data set [2] the test system is Rattus norvegicus. The note with it: subchronic, oral.
Data set [3] deals with Rattus norvegicus. The note with it: uterotrophic, Active.
Data set [4] concerns Rattus norvegicus. The settings on record: oral, Sprague-Dawley, hepatic.
For data set [5], the system named is Rattus norvegicus. The settings on record: chronic; duration: 2 years; oral; diet; M/F; increased absolute and relative liver weight.
The mark [6] stands for this setting: chronic, duration: 14 weeks, inhalation, B6C3F1.
Setting [7] is: reproduction developmental, duration: 90 days, oral, diet, F.
[8] abbreviates: reproduction developmental, duration: 90 days, oral, diet, F, Fischer 344.
Where [9] appears, read: reproduction developmental, duration: 90 days, oral, diet, Fischer 344, generation: F1.
Where [10] appears, read: reproduction developmental, duration: 90 days, oral, diet, generation: F1.

Several values for one entry are separate records, joined by “and”; a condition that tells them apart may be missing. Equal values may be shown once.

For orientation: LOAEL means the lowest dose or exposure tested at which an adverse effect was seen. The NOAEL is the highest dose or exposure tested at which no adverse effect was seen. For orientation: LD50 means the dose at which mortality reaches 50%.

`C=CC=C` [1,3-Butadiene]: the LOAEL with Mus musculus (setting [6]) was 5530 mg/m3; in the data set with Rattus norvegicus [1] (repeat dose other, inhalation, Sprague-Dawley) it was > 17700 mg/m3 and 17700 mg/m3; in the data set on Rattus norvegicus [1] (reproduction developmental, inhalation, Sprague-Dawley) it was 3320 mg/m3. In addition, the NOAEL in the data set with Mus musculus (setting [6]) amounted to 2770 mg/m3; in the data set with Mus musculus (reproduction developmental, duration: 5 days, inhalation, M, B6C3F1) it was 442 mg/m3; with Mus musculus (reproduction developmental, duration: 10 days, inhalation, CD1, generation: F1), 88.5 mg/m3; in the data set with Rattus norvegicus [1] (reproduction developmental, duration: 10 days, inhalation, Sprague-Dawley, generation: F1) it was 2210 mg/m3; with Rattus norvegicus [1] (reproduction developmental, inhalation, Sprague-Dawley, generation: F0), 664 mg/m3.
Turning to `COc1ccc(C(=O)c2ccccc2)c(O)c1` [2-Hydroxy-4-methoxybenzophenone], the NOEL in the data set with Rattus norvegicus [2] (diet, F, Fischer 344, Body Weight Changes: decrease + Food Consumption: decrease + Hematology: Hgb decrease, Plt increase + Blood Chemistry: gamma-GTP increase, …) was < 196 mg/kg-day; with Rattus norvegicus [2] (diet, M/F, Fischer 344, Body Weight Changes: decrease + Food Consumption: decrease + Hematology: Hgb decrease, Plt increase + Blood Chemistry: gamma-GTP increase, …), < 300 mg/kg-day. The LEL in the data set on Rattus norvegicus [3] (duration: 4 days, oral, diet) amounted to 1520 mg/kg-day.
With `Nc1ccc(Oc2ccc(N)cc2)cc1` [4,4'-Oxydianiline], the LD50 with Mus musculus (oral, gavage) was ≥ 635 mg/kg and ≤ 735 mg/kg; in the data set on Rattus norvegicus [1] (oral, gavage), ≥ 675 mg/kg and ≤ 775 mg/kg. The NOAEL is 10 mg/kg-day in the data set on Rattus norvegicus [1] (developmental, oral, gavage, Sprague-Dawley); 100 ppm in the data set with Rattus norvegicus [1] (setting [7]); 100 ppm in the data set on Rattus norvegicus [1] (setting [8]); 100 ppm in the data set with Rattus norvegicus [1] (setting [9]); 100 ppm in the data set with Rattus norvegicus [1] (setting [10]); 10 mg/kg-day in the data set with Rattus norvegicus [1] (reproduction developmental, oral, gavage, F, Sprague-Dawley). Also, the lowest-observed-adverse-effect level (LOAEL) in the data set with Rattus norvegicus [1] (setting [7]), in the data set on Rattus norvegicus [1] (setting [8]), with Rattus norvegicus [1] (setting [9]) and in the data set with Rattus norvegicus [1] (setting [10]) was 400 ppm in each case. Further, the NOEL in the data set on Rattus norvegicus [2] (gavage, M, Sprague-Dawley, Food Consumption: decrease + Hematology: RBC decrease, R Hgb decrease, R RET increase, R Hct decrease, MCHC decrease, R APTT decrease, WBC …) is 3 mg/kg-day.
Consider `CC(C)(C)c1ccc(O)cc1` [4-(1,1-Dimethylethyl)phenol], for which the LOAEL in the data set on Rattus norvegicus [1] (short-term, duration: 14 days, oral, gavage, Crj:CD) came to 250 mg/kg-day. Also, the LEL with Rattus norvegicus [3] (duration: 3 days, injection, subcutaneous) is 100 mg/kg-day and 99.2 mg/kg-day.
In the case of `CCBr` [Bromoethane], the LC50 with Mus musculus (inhalation, B6C3F1) stood at 12100 mg/m3; with Mus musculus (inhalation, CF1), 72200 mg/m3; in the data set on Rattus norvegicus [1] (inhalation, Fischer 344) it was 20900 mg/m3; in the data set with Rattus norvegicus [1] (inhalation, Sprague-Dawley), 120000 mg/m3. In addition, the NOAEL in the data set with Mus musculus (short-term, duration: 14 days, inhalation, B6C3F1) was determined as 2230 mg/m3; with Rattus norvegicus [1] (chronic, duration: 14 weeks, inhalation, Fischer 344), 1780 mg/m3; in the data set on Rattus norvegicus [1] (short-term, duration: 14 days, inhalation, Fischer 344), 2230 mg/m3.
Regarding `Cc1ccc2[nH]c3cc4c(=O)c5cc(C)ccc5[nH]c4cc3c(=O)c2c1` [C.I. Pigment Red 122], the LD50 is ≥ 5000 mg/kg in the data set on Mus musculus (oral, gavage) and ≥ 5000 mg/kg in the data set on Rattus norvegicus [1] (oral, gavage). In the data set on Rattus norvegicus [2] (gavage, Sprague-Dawley), this compound returned an NOEL of 1000 mg/kg-day.
Regarding `[Cl-].[Cl-].[Co+2]` [Cobalt chloride], in the data set on Mus musculus (developmental, duration: 5 days, oral, gavage, ICR), the NOAEL is 180 mg/kg-day. In the data set on Rattus norvegicus [1] (chronic, duration: 150 days, oral, gavage), this compound returned an LOAEL of 4 mg/kg-day.
Regarding `CCCCCCCCOC(=O)c1ccccc1C(=O)OCCCCCCCC` [Di-n-octyl phthalate], the LD50 with Mus musculus (oral) was determined as 13000 mg/kg; in the data set with Rattus norvegicus [1] (oral), 53700 mg/kg. The NOAEL is 9780 mg/kg-day in the data set on Mus musculus (reproduction developmental, duration: 8 days, oral, gavage, F, CD1); 38.8 mg/kg-day in the data set on Rattus norvegicus [1] (reproduction developmental, duration: 13 weeks, oral, diet, Sprague-Dawley); 40.8 mg/kg-day in the data set on Rattus norvegicus [4] (subchronic, duration: 13 weeks, diet, M/F). Further, the “NOAEL (% diet)” value stood at 5 with Mus musculus (reproduction developmental, oral, CD1, generation: F0); 5 with Mus musculus (reproduction developmental, oral, CD1, generation: F1); 5 with Mus musculus (reproduction developmental, oral, CD1, generation: F2). This compound also displayed an LOAEL in the data set on Rattus norvegicus [4] (short-term, duration: 14 days, gavage, M) of 1000 mg/kg-day.
As to `COCCOCCOC` [Diethylene glycol dimethyl ether], the no observed adverse effect level (NOAEL) came to 62.8 mg/kg-day with Mus musculus (developmental, duration: 9 days, oral, gavage, CD1); 500 mg/kg-day in the data set on Mus musculus (reproduction developmental, duration: 9 days, oral, gavage, F, CD1); 2030 mg/m3 with Rattus norvegicus [1] (short-term, duration: 2 weeks, inhalation, nose only, F). Further, the LC50 in the data set with Rattus norvegicus [1] (inhalation, nose only, Wistar) was > 11000 mg/m3. The compound also gave an NOAEC in the data set on Rattus norvegicus [1] (repeat dose other, inhalation, M) of 165 mg/m3. Moreover, the LOAEL in the data set on Rattus norvegicus [1] (short-term, duration: 2 weeks, inhalation, nose only, M) worked out at 604 mg/m3. Besides, the NOEL with Rattus norvegicus [2] (gavage, M, Sprague-Dawley, Hematology: Hgb decrease, Hct decrease, MCV decrease + Necropsy: Spleen: Enlargement + Histopathology: Liver/Centrilobular- Hypertrophy of …) worked out at 2.5 mg/kg-day.
In the data set with Rattus norvegicus [5], `CC1=C(C)S(=O)(=O)CCS1(=O)=O` [Dimethipin] had an LEL of 10 mg/kg-day and an NOEL of 2 mg/kg-day.
